This note sets out measurements from patent US20260374750A1, “LIGANDS SPECIFICALLY TARGETING VESICULAR GLUTAMATE TRANSPORTERS FOR SUPER-RESOLUTION IMAGING” (SORBONNE UNIVERSITÉ, priority 2021, published 2026).

Series [1] in a line: Fluorimetry: absorption and emission spectra, Stokes shift, molar absorption coefficient, quantum efficiency. Format: physicochemical. On the set-up: λmax abs / λmax em: unit not given here; key to Stokes shift: λmaxem − λmaxabs (emission peak minus absorption peak). The settings on record: for Stokes shift: λmaxem-λmaxabs; for ε (molar absorption coefficient) / φ (quantum efficiency): coumarin-343 as reference. The procedure:
The physicochemical properties of each ligand were determined thanks to fluorimetry. For each compound, a dilution range was performed and measurements were taken at 1 mM, 316 μM, 100 μM, 31.6 μM, 10 μM, 3.16 μM and 1μ. In 96-well fluorescence microplates, the absorbance and emission spectra of the ligands could be determined at each concentration thanks to a plate spectrophotometer (Tecan). The absorbance spectra are first measured for each compound so as to determine the maximum absorption wavelength (λmaxabs). The fluorescence, or emission, spectra are then determined after excitation of each compound at its λmaxabs, thus allowing obtaining the maximum fluorescence wavelength (λmaxem). Different parameters specific to each of the compounds were determined: • The Stokes shift: it corresponds to the difference between the peak of the absorption spectrum and the peak of the fluorescence spectrum, i.e.: λmaxem-λmaxabs • The molar absorption coefficient (ε): it reflects the capacity of the solutions to absorb light and is determined by the formula ε=A/(C.I)(A: optical density at λmaxabs, C: concentration of the compound, I: constant corresponding to the length of the optical path). ε is expressed in L·cm^−1·mol^−1. • The quantum efficiency (Φ): it represents the ratio of the number of photons emitted to the number of photons absorbed by the compound, i.e. the “probability” for an excited molecule to emit a photon. It takes a value between 0 and 1, 0 corresponding to a non-fluorescent molecule and 1 meaning that there is no de-excitation. Its value is determined thanks to the following formula where Abs: optical density at λmaxabs, AUC: area under the curve of the fluorescence spectrum, n: refractive index of the medium. In this formula, “m” refers to the studied molecule, and “r” to a reference fluorophore.
[formula] • of the fluorescence spectrum, n: refractive index of the medium). In this formula, “m” refers to the studied molecule, and “r” to a reference fluorophore.
The determination of ε and Φ requires the use of a reference fluorescent molecule for which these two parameters are known. Because of its coumarin-type fluorescent pattern, therefore close to those of the studied compounds, coumarin-343 (ε=44300 L·cm−1·mol−1 and Φ=0.63 in ethanol) was used as reference fluorophore. These two parameters were recalculated in the compound dilution medium (DMSO), and were used as a reference in the calculation of ε and Φ for each ligand.
In order to study the effect of a pH variation on the fluorescence intensity of the compounds, the measurements of the absorption and emission spectra were carried out in three different dilution media: • DMSO: pure dimethyl sulfoxide • Phosphate buffer pH 7.2 (0.2 M) • Phosphate buffer pH 5.5 (0.2 M)
FIG. 1 illustrates the absorption and emission spectra of the compound referenced L8, a carboxylic acid from the quinoline family. This is an example of the study carried out on each of the studied fluorophores. The graphic values determined thanks to these spectra are the λmaxabs, the λmaxem and the Stokes shift in each medium. […] The most diluted wells are preferred to see the emission peak of the compound.
The results which are obtained graphically thanks to the excitation and emission spectra and by calculation via the properties of coumarin 343 are grouped in Table 2 below.

The test system of another series is BON WT cells. In words: Confocal fluorescence labeling of wild-type BON cells. Format: cell-based, human. As to conditions: FIG. 2. On the procedure: The experiments are carried out with a BON cell line stably expressing VGLUT3 or a fluorescent VGLUT2 “VGLUT2-venus”. Wild non-transfected BON cells (“wild-type”, BON WT) are used as controls. The cells are cultured in F-12 Nutrient Mixture Ham medium (21765-029, Thermo Fisher Scientific) and Dulbecco's Modified Eagle's Medium High Glucose (DMEM HG, 31966021, Thermo Fisher Scientific; volume/volume), supplemented with 10% fetal calf serum (FCS, 12483012, Thermo Fisher Scientific) and 1% (volume/volume) of a mixture of streptomycin (10 mg/mL)/penicillin (10,000 U/mL) and […] an incubator at 37 °C under 5% CO2. For the transfected clones, the medium is enriched with 0.8 mg/mL Geneticin G418 sulfate (G418, 10131027, Thermo Fisher Scientific).
Two days before each experiment, after trypsinization of the cells from a culture flask, the cell suspension is seeded at 150,000 cells/well, in twelve-well plates on glass coverslips 19 mm in diameter. For observation, these coverslips are placed in a chamber allowing a hermetic fixation of the coverslip in the observation medium, Fluorobrite™ DMEM (A1896701, Thermo Fisher Scientific), a transparent medium.
Before each observation, the cells are incubated at 37 °C in the presence of fluorescent ligands, at previously determined concentrations. The effect of a pretreatment of BON cells with a specific inhibitor of VGLUTs, the substance LSP5-2157, is also performed to study the inhibitory effect of this substance on the labeling of BON cells with the fluorescent ligands of the invention.
The cells are observed in real time under an inverted confocal microscope, with a 63× objective in a room thermostated at 37 °C (Leica TCS SP5; cellular imaging platform of the Paris-Seine Institute of Biology). The studied fluorescent molecules emit in the blue, the cells are excited at 405 nm.
FIG. 2 illustrates the observation and quantification of the BON cells under a confocal microscope, and the inhibition of the fluorescent signal by a pretreatment of the cells with the specific VGLUT inhibitor, LSP5-2157. […] The images are presented in negative. D,H,L and P: Quantification of the treatment effect.

The mark [2] stands for this setting: pH 7 (phosphate buffer pH 7.2, 0.2 M).
[3] abbreviates: phosphate buffer pH 5.5 (0.2 M).

As for `Nc1ccc(-c2ccc(-c3cn(-c4ccc5oc(=O)c(C(=O)O)cc5c4)nn3)cc2)cc1` [LSP17-1115, 6-(4-(4′-amino-[1,1′-biphenyl]-4-yl)-1H-1,2,3-triazol-1-yl)-2-oxo-2H-chromene-3-carboxylic Acid], the λmax abs was determined as 325 in series [1] (DMSO), 365 in series [1] (setting [2]) and 365 in series [1] (setting [3]). Moreover, the λmax em in series [1] (DMSO) was 410; in series [1] (setting [2]), 415; in series [1] (setting [3]), 408. For the same compound, the results for the Stokes shift in series [1] (DMSO), in series [1] (pH 5.5) and in series [1] (pH 7) were 85, 43 and 50, respectively. Besides, in series [1] (DMSO), the “ε (molar absorption coefficient)” value turned out to be 36944.8 L/cm/mol. In series [1] (DMSO), the “φ (quantum efficiency)” value is on record as 0.06.

For `COc1cc2oc(=O)c(C(=O)O)cc2cc1-n1cc(-c2ccc(-c3ccc(N)cc3)cc2)nn1` [LSP17-1124, 6-(4-(4′-amino-[1,1′-biphenyl]-4-yl)-1H-1,2,3-triazol-1-yl)-7-methoxy-2-oxo-2H-chromene-3-carboxylic Acid], the λmax abs is 330 in series [1] (DMSO), 365 in series [1] (setting [2]) and 335 in series [1] (setting [3]). In addition, the λmax em in series [1] (DMSO) was 405-511; in series [1] (setting [2]), 416; in series [1] (setting [3]) it was 380. Besides, the Stokes shift in series [1] (DMSO) worked out at 75; in series [1] (pH 5.5), 45; in series [1] (pH 7), 51. Further, the “ε (molar absorption coefficient)” value in series [1] (DMSO) worked out at 21908.6 L/cm/mol. Moreover, the “φ (quantum efficiency)” value in series [1] (DMSO) is listed as 0.14.

For the compound `O=C(O)c1cc(C(=O)O)c2cc(-c3ccc(-c4ccccc4)cc3)ccc2n1` [LSP13-1152-YL152 (L8), 6-(Biphenyl-4-yl) quinoline-2,4-dicarboxylic Acid], the “labeling in cytoplasm of BON WT cells” value in the series on BON WT cells was “a weak and homogeneous labeling is detected”. In series [1] (DMSO), the λmax abs was 355, the λmax em came to 415, the Stokes shift was found to be 60 and the “ε (molar absorption coefficient)” value was determined as 35280.3 L/cm/mol. Further, the “φ (quantum efficiency)” value in series [1] (DMSO) turned out to be 0.32. For the same compound, the “fluorescence intensity of emission spectra” value in series [1] (FIG. 1) is given as “very significant fluorescence intensities”. Also, the Stokes shift in series [1] (pH 5.5) came to 80. Besides, the λmax abs in series [1] (setting [2]) is on record as 330. In addition, the Stokes shift in series [1] (pH 7) was found to be 80. For the same compound, in series [1] (setting [3]), the λmax abs turned out to be 330 and the λmax em is listed as 410.

Consider `CCOC(=O)c1cc2cc(C#Cc3ccc(-c4ccc(N)cc4)cc3)c(O)cc2oc1=O` [F11, Ethyl-6-((4′-amino-[1,1′-biphenyl]-4-yl)ethynyl)-7-hydroxy-2-oxo-2H-chromene-3-carboxylate], for which the λmax em in series [1] (DMSO) was 500-620; in series [1] (setting [2]), 425; in series [1] (setting [3]), 410. The Stokes shift was 160 in series [1] (DMSO), 45 in series [1] (pH 5.5) and 60 in series [1] (pH 7). Also, the “ε (molar absorption coefficient)” value in series [1] (DMSO) is 62227.6 L/cm/mol. In addition, in series [1] (DMSO), the “φ (quantum efficiency)” value stood at 0.18. For the same compound, the λmax abs in series [1] (setting [2]) and in series [1] (setting [3]) was 365 throughout.

Regarding `Nc1ccc(-c2ccc(C#Cc3cc4cc(C(=O)O)c(=O)oc4cc3O)cc2)cc1` [LSP17-1173, 6-((4′-amino-[1,1′-biphenyl]-4-yl)ethynyl)-7-hydroxy-2-oxo-2H-chromene-3-carboxylic Acid], the “labeling in cytoplasm of BON WT cells” value in the series on BON WT cells is “a weak and homogeneous labeling is detected”. Moreover, in series [1] (DMSO), the λmax em is listed as 460, the Stokes shift came to 125, the “ε (molar absorption coefficient)” value came to 51857.8 L/cm/mol and the “φ (quantum efficiency)” value is on record as 0.06. In series [1] (pH 5.5), the Stokes shift stood at 47. Further, the λmax abs in series [1] (setting [2]) was found to be 360. Further, the Stokes shift in series [1] (pH 7) turned out to be 80. Moreover, in series [1] (setting [3]), the λmax abs worked out at 365 and the λmax em is 412.
